Results published in US8158681B2, “Nutraceutical and pharmaceutical compositions and use thereof for the treatment, co-treatment or prevention of inflammatory disorders” (DSM IP Assets B.V., priority 2006, dated 2012).

Tests used:
Format in all cases: cell-based, murine
[1] = test system: PGE2 production, RAW264.7; test: Inhibition of PGE2 production in LPS-stimulated RAW264.7 macrophages (EIA); settings: single compounds, RAW264.7, 1 μg/ml LPS, 24 hours
Protocol: (§1) Pure compounds were assayed in vitro in cellular systems. The inhibition of the synthesis of pro-inflammatory prostaglandins (PG) and of nitric oxide by the extracts or compounds was measured. PGE2 plays a critical role in the inflammation process, while nitric oxide (NO) is a hallmark of inflammation in various chronic inflammatory diseases including various forms of arthritis, gastrointestinal diseases and metabolic syndrome X.
(§2) The effects of extracts or compounds on the inflammatory response were tested in cellular assays using a murine macrophage indicator cell line, RAW264.7. The cells were purchased from ATCC (Manassas, Va., USA) and cultured in DMEM containing streptomycin/penicillin, non-essential amino acids and 10% fetal calf serum (FCS). In order to test a large range of concentration of compounds, cells (˜50′000/well) were seeded into flat-bottomed microtiter plates and cultured for one day. Cells were then starved in complete medium containing 0.25% FCS (D-025). After overnight culture, medium was removed and replaced by 100 μL of D-025 containing the test compounds at twice the final concentration. Subsequently, 100 μL of D-025 containing 2 μg/ml LPS was added (i.e. final LPS concentration of 1 μg/ml) and the cells cultured for 24 hours.
(§3) Compounds were usually tested in a concentration range from 0.2 to 50 μM in two-fold dilution steps. Extracts were tested in a range from 0.2-50 mg/L. All treatments were done in duplicates and several experimental series were done for each treatment. Concentrations of nitrite, which was rapidly formed from nitric oxide released by cells, were determined by the Griess reaction using sodium nitrite as standard. Briefly, 50 μl of supernatant was mixed with Griess reagent 1 (25 μL) and Griess reagent 2 (25 μL), centrifuged and the optical density at 540 nm determined. PGE2 secreted into the cell culture medium was determined by EIA obtained from Cayman Chemicals (Ann Harbor, Wis., USA) and used according to the manufacturer's instructions. All determinations were done in duplicates and at various dilutions of the culture supernatant. IC50 values were calculated using a […] least-square fitting equation [y=A+((B−A)/(1+((C−x)^D))] for best-fit curves (Excel fit software program).

[2] = test system: nitric oxide (NO) production, RAW264.7; test: Inhibition of nitric oxide production in LPS-stimulated RAW264.7 macrophages (Griess reaction); settings: single compounds, RAW264.7, 1 μg/ml LPS, 24 hours
Protocol: as §1, §2, §3

[3] = test system: matrix metalloproteinase 9 (MMP-9) mRNA; test: Expression of inflammatory genes in stimulated RAW 264.7 cells, quantitative RT-PCR: MMP-9; settings: RAW 264.7, 4 hours
Protocol: (§4) The effect of the compounds has also been evaluated on the level of the expression of genes that are involved in the inflammatory response. These comprise genes of the prostaglandin synthesis pathway, cytokines and chemokines or inducible nitric oxide synthase (iNOS). RAW 264.7 cells were stimulated in the presence of different concentrations of substances. After 4 hours, RNA was extracted and the expression of genes determined by quantitative RT-PCR as described (Richard, N., Porath, D., Radspieler, A. and Schwager, J. Effects of resveratrol, piceatannol, tri-acetoxystilbene, and genistein on the inflammatory response of human peripheral blood leukocytes. Mol Nutr Food Res 2005. 49: 431-442). […] Collectively, the results reveal significant effects of the compounds on the expression of distinct genes involved in the inflammatory response.

IL-1 alpha mRNA = test: Expression of inflammatory genes in stimulated RAW 264.7 cells, quantitative RT-PCR: IL-1 alpha; settings: 25 μM/L Amorfrutin A; RAW 264.7, 4 hours
Protocol: as §4

[4] = test system: interleukin-10 (IL-10) mRNA; test: Expression of inflammatory genes in stimulated RAW 264.7 cells, quantitative RT-PCR: IL-10; settings: RAW 264.7, 4 hours
Protocol: as §4

[5] = test system: inducible nitric oxide synthase (iNOS) mRNA; test: Expression of inflammatory genes in stimulated RAW 264.7 cells, quantitative RT-PCR: iNOS; settings: RAW 264.7, 4 hours
Protocol: as §4

Row | Structure (SMILES) | IC50 ([1]; Mus musculus) [µM] | IC50 ([2]; Mus musculus) [µM] | IC50 [1] [µM] | IC50 [2] [µM] | also measured
1 | C=C(C)C(O)Cc1c(OC)cc(CCc2ccccc2)c(C(=O)O)c1O (stereo not shown) [2-hydroxy-4-methoxy-3-(2-hydroxy-3-methyl-3-butenyl)-6-(2-phenylethyl)-benzoic acid] | 40.7 ± 11.8 | 14.6 ± 0.3 |  |  | 
2 | C=C(C)C(O)Cc1c(OC)cc(CCCCC)c(C(=O)O)c1O (stereo not shown) [2-hydroxy-4-methoxy-3-(2-hydroxy-3-methyl-3-butenyl)-6-pentyl-benzoic acid] | 18.9 ± 1.6 | 22.1 ± 1.6 |  |  | 
3 | CCCCCc1cc(OC)c(CC=C(C)C)c(O)c1C(=O)O [2-hydroxy-4-methoxy-3-(3-methyl-2-butenyl)-6-pentyl-benzoic acid] | > 50 | 10.9 ± 1.2 |  |  | 
4 | COc1cc(CCc2ccccc2)c(C(=O)O)c(O)c1CC=C(C)C [Amorfrutin A (III), Amorfrutin A] |  |  | 74.1 ± 12.1 | 7.1 ± 0.1 | % expression of MMP-9 mRNA relative to cells stimulated with LPS only (=100%) ([3]; 25 μM/L Amorfrutin A): 69%; Effect on MMP-9 gene expression (in words) ([3]; RT-PCR): significantly reduced; % expression of IL-1 alpha mRNA relative to cells stimulated with LPS only (=100%) (IL-1 alpha mRNA): 94%; % expression of IL-10 mRNA relative to cells stimulated with LPS only (=100%) ([4]; 25 μM/L Amorfrutin A): 22%; Effect on IL-10 gene expression (in words) ([4]; RT-PCR): significantly reduced; % expression of iNOS mRNA relative to cells stimulated with LPS only (=100%) ([5]; 25 μM/L Amorfrutin A): 52%; Effect on iNOS gene expression (in words) ([5]; RT-PCR): significantly reduced
5 | COc1cc(CCc2ccccc2)c(C(=O)O)c(O)c1C/C=C(\C)CCC=C(C)C [Amorfrutin B (II), Amorfrutin B] |  |  | > 100 | 22.8 ± 4.1 | 
6 | CCCCCc1cc(OC)c(C/C=C(\C)CCC=C(C)C)c(O)c1C(=O)O [Cannabigerolic acid monomethyl ether] |  |  | 17.9 ± 11.6 | 31.3 ± 2.5 | 
